Reference: paper PMC7493195 (Journal of medicinal chemistry, 2020)

Columns and labels:
SRC = SRC (Homo sapiens, UniProt P12931); test: Z’LYTE / LanthaScreen kinase assay; type: biochemical
kinases = conditions: cited from earlier work
p-SRC^Y416 [1] = conditions: H1975 and HCC827 cells, 1 μM, 2 h
[2] = Stability in mouse liver microsomes; type: in vitro ADME
p-SRC^Y416 [3] = conditions: 3 doses of 5 mg/kg IP, 2 and 4 h after last dose
MEK1/2 and ERK1/2 = test: Cellular target engagement, TL13–68 competition pulldown, MEK1/2 and ERK1/2; type: cell-based; conditions: H1975 and HCC827 cells, 1 μM, 2 h
p-SRC^Y416 [4] = conditions: H1975, 1 μM, 2 h, then 0, 2, 4 h postwashout
FGFR1 = FGFR1 (Homo sapiens, UniProt P11362); test: Z’LYTE / LanthaScreen kinase assay; type: biochemical
FGFR1, sequence (P11362 22-822): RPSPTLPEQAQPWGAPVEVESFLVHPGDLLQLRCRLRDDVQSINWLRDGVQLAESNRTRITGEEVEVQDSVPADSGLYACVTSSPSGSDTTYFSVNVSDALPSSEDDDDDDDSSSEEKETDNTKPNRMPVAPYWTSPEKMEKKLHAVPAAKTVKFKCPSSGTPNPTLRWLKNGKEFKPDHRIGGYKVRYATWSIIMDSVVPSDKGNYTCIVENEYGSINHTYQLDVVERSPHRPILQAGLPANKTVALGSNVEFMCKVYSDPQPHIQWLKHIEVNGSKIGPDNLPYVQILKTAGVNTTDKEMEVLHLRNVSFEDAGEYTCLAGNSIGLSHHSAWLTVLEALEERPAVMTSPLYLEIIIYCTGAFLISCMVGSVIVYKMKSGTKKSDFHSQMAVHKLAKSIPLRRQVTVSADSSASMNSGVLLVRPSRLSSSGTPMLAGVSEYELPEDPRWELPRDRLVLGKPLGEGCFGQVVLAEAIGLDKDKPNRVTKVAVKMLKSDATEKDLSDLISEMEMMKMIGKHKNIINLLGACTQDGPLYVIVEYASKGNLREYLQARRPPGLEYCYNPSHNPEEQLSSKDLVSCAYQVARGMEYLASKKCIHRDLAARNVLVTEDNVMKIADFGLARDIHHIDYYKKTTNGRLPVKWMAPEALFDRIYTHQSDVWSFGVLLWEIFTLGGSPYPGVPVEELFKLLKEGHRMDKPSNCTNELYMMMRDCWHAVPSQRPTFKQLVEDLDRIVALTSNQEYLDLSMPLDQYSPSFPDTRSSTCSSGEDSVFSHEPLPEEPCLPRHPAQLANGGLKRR

[5] = test system: panel of 468 human kinases; conditions: 1 μM, 468 kinases, cited from earlier work
[6] = test system: MDA-MB-231, H1975 and HCC827 cells; conditions: 72 h, three cell lines

SRC, sequence (P12931 whole entry): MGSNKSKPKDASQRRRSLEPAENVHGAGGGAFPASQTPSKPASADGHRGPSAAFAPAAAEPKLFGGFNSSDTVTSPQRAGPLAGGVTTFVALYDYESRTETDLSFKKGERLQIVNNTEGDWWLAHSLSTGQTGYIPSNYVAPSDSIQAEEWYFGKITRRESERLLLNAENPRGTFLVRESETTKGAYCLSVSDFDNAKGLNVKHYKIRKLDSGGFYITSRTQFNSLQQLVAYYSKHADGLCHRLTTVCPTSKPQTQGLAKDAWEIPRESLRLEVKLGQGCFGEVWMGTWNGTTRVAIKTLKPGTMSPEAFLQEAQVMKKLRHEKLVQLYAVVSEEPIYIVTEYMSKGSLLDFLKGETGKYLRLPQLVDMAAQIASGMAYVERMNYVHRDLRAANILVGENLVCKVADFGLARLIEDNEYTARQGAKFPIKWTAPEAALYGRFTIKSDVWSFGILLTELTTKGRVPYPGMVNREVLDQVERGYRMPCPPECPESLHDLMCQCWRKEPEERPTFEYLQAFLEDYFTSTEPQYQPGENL

Question: Which “activity on SRC, in words” value (SRC) does the source give for `C=CC(=O)Nc1ccccc1Nc1nc(Nc2ccc(N3CCC(N4CCN(C)CC4)CC3)cc2)ncc1C(=O)Nc1c(C)cccc1Cl` [Compound 17c, 4-((2-Acrylamidophenyl)amino)-N-(2-chloro-6-methylphenyl)-2-((4-(4-(4-methylpiperazin-1-yl)piperidin-1-yl)phenyl)amino)-pyrimidine-5-carboxamide] here?
Answer: loss of binding

Question: For `COc1cc(Nc2c(C#N)cnc3cc(OCCCN4CCN(C)CC4)c(OC)cc23)c(Cl)cc1Cl` [bosutinib], which “number of kinases inhibited” value (kinases) is on record?
Answer: > 45 kinases

Question: For `C=CC(=O)Nc1ccccc1Nc1nc(Nc2ccc(N3CCN(C)CC3)cc2)ncc1C(=O)Nc1c(C)cccc1Cl` [Compound 15a, 4-((2-Acrylamidophenyl)amino)-N-(2-chloro-6-methylphenyl)-2-((4-(4-methylpiperazin-1-yl)phenyl)amino)pyrimidine-5-carboxamide], which “inhibition of p-SRC^Y416 signaling” value (p-SRC^Y416 [1]) is on record?
Answer: inhibited p-SRC^Y416 signaling

Question: What about the half-life [2] of the same compound?
Answer: 5.2 min

Question: What about the “inhibition of p-SRC^Y416 in spleen” value (p-SRC^Y416 [3]) of the same compound?
Answer: inhibition of p-SRC^Y416 at 2 and 4 h postdosing

Question: And the “cellular engagement of MEK1/2 or ERK1/2” value (MEK1/2 and ERK1/2)?
Answer: did not engage

Question: What about the “inhibition of p-SRC^Y416 signaling after washout” value (p-SRC^Y416 [4]) of the same compound?
Answer: potent and sustained inhibition of p-SRC^Y416 signaling up to 4 h postwashout

Question: With `C=CC(=O)Nc1ccccc1Nc1nc(Nc2ccc(N3CCN(C)CC3)cc2)ncc1C(=O)Nc1ccc(Oc2ccccc2)cc1` [Compound 15i, 4-((2-Acrylamidophenyl)amino)-2-((4-(4-methylpiperazin-1-yl)-phenyl)amino)-N-(4-phenoxyphenyl)pyrimidine-5-carboxamide] as the compound, how does the “activity on SRC, in words” value (SRC) read?
Answer: complete loss of activity

Question: What about the “activity on FGFR1, in words” value (FGFR1) of the same compound?
Answer: complete loss of activity

Question: With `C=CC(=O)Nc1ccccc1Nc1nc(Nc2ccc(N3CCN(C)CC3)cc2)ncc1OCc1ccc(Oc2ccccc2)cc1` [Compound 10c, N-(2-((2-((4-(4-Methylpiperazin-1-yl)phenyl)amino)-5-((4-phenoxybenzyl)oxy)pyrimidin-4-yl)amino)phenyl)acrylamide] as the compound, how does the “loss of activity on FGFR1 compared to SM1–71” value (FGFR1) read?
Answer: 20 fold

Question: What does the source list for `C=CC(=O)Nc1ccccc1Nc1nc(Nc2ccc(N3CCN(C)CC3)cc2)ncc1Cl` [SM1–71]?
Answer: selectivity score S(35) ([5]; specified percent inhibition 35%): 0.43; number of kinases hit [5]: more than 100 kinases

Question: For `Cc1nc(Nc2ncc(C(=O)Nc3c(C)cccc3Cl)s2)cc(N2CCN(CCO)CC2)n1` [dasatinib], which “number of kinases inhibited” value (kinases) is on record?
Answer: > 30 kinases

Question: With `CN1CCN(CCOc2cc(OC3CCOCC3)c3c(Nc4c(Cl)ccc5c4OCO5)ncnc3c2)CC1` [AZD0530] as the compound, how does the “growth inhibitory potency, in words” value [6] read?
Answer: weaker potency compared to 15a
